Assay results taken from patent US8324209B2, “Pesticidal compositions” (Dow AgroSciences, LLC, priority 2008, dated 2012).

These compounds were tested on cotton aphid (Aphis gossypii) (assay: Insecticidal test for cotton aphid in foliar spray assay on squash). Details: 200 ppm foliar spray on squash cotyledons; live aphids counted after 3 days; Corrected % Control (Abbott's formula); 4 replications.
Type: in vivo
Description: The compounds identified in the foregoing examples were tested against cotton aphid using procedures described hereinafter. Insecticidal Test for Cotton Aphid (Aphis gossypii) in Foliar Spray Assay Squash seedlings with fully expanded cotyledon leaves were trimmed to one cotyledon per plant and infested with cotton aphid (wingless adults and nymphs) 1 day prior to chemical application. Each plant was examined before chemical application to ensure uniform infestation (ca. 30-70 aphids per plant). Compounds (2 mg) were dissolved in 2 mL of acetone/methanol (1:1) solvent, forming stock solutions of 1000 ppm. The stock solutions were diluted 5× with 0.025% Tween 20 in H2O to obtain a solution at 200 ppm. A hand-held Devilbiss aspirator type sprayer was used to apply the spray solutions until runoff to both sides of the squash cotyledon leaves. Four plants (4 replications) were used for each compound. Reference plants (solvent check) were sprayed with the diluent only. Treated plants were held in a holding room for 3 days at approximately 23° C. and 40% relative humidity (RH) before the number of live aphids on each plant was recorded. Insecticidal activity was measured by Corrected % Control using Abbott's correction formula and presented in Table 1-Activity: Corrected % Control=100*(X−Y)/X • where X=No. of live aphids on solvent check plants • Y=No. of live aphids on treated plants Results are shown in Table 1.

SMILES | % Control at ppm, against cotton aphid on squash (foliar spray)
CC(c1cnc(C(F)(F)F)nc1)S(C)(=O)=NC#N (stereo not drawn) [Compound 3, methyl(oxido){1-[2-(trifluoromethyl)pyrimidin-5-yl]ethyl}-λ^4-sulfanylidenecyanamide] | A (80-100)
CS(=O)(Cc1ccc(Cl)nn1)=NC#N (stereo not drawn) [Compound 2, [(3-chloropyridazin-6-yl)methyl](methyl)oxido-λ^4-sulfanylidenecyanamide] | A (80-100)
CC(c1cnc(Cl)nc1)S(C)(=O)=NC#N (stereo not drawn) [Compound 1, [1-(2-chloropyrimidin-5-yl)ethyl](methyl)oxido-λ^4-sulfanylidenecyanamide] | A (80-100)
